Eleven molecules from patent US12404285B2, “KRAS G12D proteolysis targeting chimeras” (PAQ Therapeutics Inc., priority 2022, dated 2025) can be followed below.

SMILES strings stand for the structures.

In this experiment the target is T1, KRAS in AGS cells (KRAS G12D mutant cell line) or LS180 cells (KRAS G12D mutant cell line) (Homo sapiens, UniProt P01116, G12D).
T1 construct: CRL-187 (LS180) (so in the source); host or cells: AGS or LS180 cells
T1 sequence (P01116 1-188 isoform P01116-2 G12D): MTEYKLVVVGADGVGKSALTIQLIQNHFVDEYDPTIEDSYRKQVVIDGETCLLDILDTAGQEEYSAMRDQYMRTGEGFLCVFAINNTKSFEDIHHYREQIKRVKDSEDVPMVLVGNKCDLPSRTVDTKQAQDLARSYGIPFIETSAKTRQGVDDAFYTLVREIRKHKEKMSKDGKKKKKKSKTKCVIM
Description: KRAS Western Blot (WB) assay. Type of experiment: cell-based. To be noted: KRAS degradation, 24 hours incubation, normalized to β-actin. As for the experimental part:
Day 1. Seeded AGS cells (KRAS G12D mutant cell line, ATCC, CRL-1739) or LS180 cells (KRAS G12D mutant cell line, ATCC, CRL-187) into 6-well plates (cell density: 3×10^5 cells/well/2 ml medium) in Ham's F-12 medium (Invitrogen, 11765-054) or Eagle's Minimum Essential Medium (ATCC, 30-2003) and incubated overnight at 37° C. and 5% CO2.
Day 2. Aspirated 1 ml medium from each well and added 1 ml medium containing DMSO or test compound into the well to achieve the desired final concentration. Mixed well by gentle shaking and incubated for 24 hours.
Day 3. Aspirated media from plates; washed cells with 2 ml 4° C. PBS (Solarbio, P1020-500) and aspirated the PBS. Then added 100 μl 4° C. […] lysis buffer (Boston BioProducts BP-115D) with protease and phosphatase inhibitors at vendor recommended concentrations (Roche 05892791001 and 04906837001) into each well to lyse the cells, and incubated for 20 minutes at 4° C. Cell lysate was collected into 1.5 ml Eppendorf tube, and the lysate was sonicated at 4° C. for 2 minutes (5 second pulse at 30% power with 10 second intermissions). The lysate was centrifuged at 12,000 rpm for 15 minutes at 4° C. The supernatant was transferred to a fresh Eppendorf tube, and protein concentration was quantified using a BCA kit (Solarbio, PC0020-500). Mixed the cell lysate and 5×NuPAGE SDS Loading Buffer (Beyotime, P0015L), and heated at 95° C. for 10 minutes in a heat block. Prepared samples were stored at −80° C. until SDS-PAGE procedure.
Day 4. Loaded 15 μg protein from each sample onto NuPAGE® Novex 4-12% Bis-Tris Midi Gel, 26 W (Invitrogen, WG1403BOX) and ran the gel at 120V for 1.5 hours in 1×NuPAGE® MOPS SDS Running Buffer (Novex, NP0001). Electrotransferred to nitrocellulose membrane using dry transfer method (iBlot 2 Transfer Stacks, nitrocellulose, IB23001) with a program consisting of 20V for 1 minute, 23V for 4 minutes and 25V for 2 minutes. Blocked the membrane with 5% BSA (Solarbio, A8020) in 1×TBST (CST, 9997S) for 1 hour at room temperature. Incubated with KRAS antibody (LSBio, LS-C175665, clone 2C1) at 1:1000 dilution and β-actin antibody at 1:1000 dilution (CST, 4970S) in TBST containing 1% BSA (Solarbio, A8020) at 4° C. overnight.
Day 5. Washed nitrocellulose membrane three times with 1×TBST for 10 minutes each at room temperature. Incubated with fluorescently labeled secondary antibodies at 1:5000 dilution in TBST containing 1% BSA (anti-rabbit IgG, Licor, 926-32211; anti-mouse IgG, LI-COR, 926-68070) for 1 hour at room temperature. Washed membrane three times with TBST, 10 minutes each. Scanned the membrane on LiCOR scanner for fluorescent signal(s) and quantified KRAS bands and β-actin bands for normalization.
The data are reported in Table 2, wherein “A” indicates a DC50 of less than 1 μM; “B” indicates a DC50 of greater than or equal to 1 μM and less than 10 μM; and “C” indicates a DC50 of greater than or equal to 10 μM.
(Immunoblotting shows a protein as a band on a membrane.)
`C#Cc1c(F)ccc2cc(O)cc(-c3ncc4c(N5CC6CCC(C5)N6)nc(OCC56CCCN5[C@H](COC(=O)NCCCCCCCCCNc5cccc7c5C(=O)N(C5CCC(=O)NC5=O)C7=O)CC6)nc4c3F)c12` (mixture of isomers) [Compound 023, (3RS,8RS)-[8-[[4-(3,8-Diazabicyclo[3.2.1]octan-3-yl)-7-(8-ethynyl-7-fluoro-3-hydroxy-1-naphthyl)-8-fluoro-pyrido[4,3-d]pyrimidin-2-yl]oxymethyl]-1,2,3,5,6,7-hexahydropyrrolizin-3-yl]methyl N-[9-[[2-(2,6-dioxo-3-piperidyl)-1,3-dioxo-isoindolin-4-yl]amino]nonyl]carbamate]: the DC50 entry is reported as “A (DC50 less than 1 μM)”.

For the molecule `C#Cc1c(F)ccc2cc(O)cc(-c3ncc4c(N5CC6CCC(C5)N6)nc(OC[C@@]56CCCN5[C@H](COC(=O)NCCCc5ccc7c(c5)n(C)c(=O)n7C5CCC(=O)NC5=O)CC6)nc4c3F)c12` (stereo partly drawn) [Compound 001, [(3S,8S)-8-[[4-(3,8-diazabicyclo[3.2.1]octan-3-yl)-7-(8-ethynyl-7-fluoro-3-hydroxy-1-naphthyl)-8-fluoro-pyrido[4,3-d]pyrimidin-2-yl]oxymethyl]-1,2,3,5,6,7-hexahydropyrrolizin-3-yl]methyl N-[3-[1-(2,6-dioxo-3-piperidyl)-3-methyl-2-oxo-benzimidazol-5-yl]propyl]carbamate], the DC50 entry is listed as “C (DC50 greater than or equal to 10 μM)”.

Regarding `C#Cc1c(F)ccc2cc(O)cc(-c3ncc4c(N5CC6CCC(C5)N6)nc(OC[C@@]56CCCN5[C@H](COC(=O)NCCc5ccc7c(c5)n(C)c(=O)n7C5CCC(=O)NC5=O)CC6)nc4c3F)c12` (stereo partly drawn) [Compound 002, [(3S,8S)-8-[[4-(3,8-diazabicyclo[3.2.1]octan-3-yl)-7-(8-ethynyl-7-fluoro-3-hydroxy-1-naphthyl)-8-fluoro-pyrido[4,3-d]pyrimidin-2-yl]oxymethyl]-1,2,3,5,6,7-hexahydropyrrolizin-3-yl]methyl N-[2-[1-(2,6-dioxo-3-piperidyl)-3-methyl-2-oxo-benzimidazol-5-yl]ethyl]carbamate], the DC50 entry is given as “C (DC50 greater than or equal to 10 μM)”.

In the case of `C#Cc1c(F)ccc2cc(O)cc(-c3ncc4c(N5CC6CCC(C5)N6)nc(OC[C@@]56CCCN5[C@H](COC(=O)NCCCc5cccc7c5n(C)c(=O)n7C5CCC(=O)NC5=O)CC6)nc4c3F)c12` (stereo partly drawn) [Compound 003, [(3S,8S)-8-[[4-(3,8-diazabicyclo[3.2.1]octan-3-yl)-7-(8-ethynyl-7-fluoro-3-hydroxy-1-naphthyl)-8-fluoro-pyrido[4,3-d]pyrimidin-2-yl]oxymethyl]-1,2,3,5,6,7-hexahydropyrrolizin-3-yl]methylN-[3-[1-(2,6-dioxo-3-piperidyl)-3-methyl-2-oxo-benzimidazol-4-yl]propyl]carbamate], the DC50 entry is “C (DC50 greater than or equal to 10 μM)”.

On to `C#Cc1c(F)ccc2cc(O)cc(-c3ncc4c(N5CC6CCC(C5)N6)nc(OC[C@@]56CCCN5[C@H](COC(=O)NCCc5cccc7c5n(C)c(=O)n7C5CCC(=O)NC5=O)CC6)nc4c3F)c12` (stereo partly drawn) [Compound 004, [(3S,8S)-8-[[4-(3,8-diazabicyclo[3.2.1]octan-3-yl)-7-(8-ethynyl-7-fluoro-3-hydroxy-1-naphthyl)-8-fluoro-pyrido[4,3-d]pyrimidin-2-yl]oxymethyl]-1,2,3,5,6,7-hexahydropyrrolizin-3-yl]methyl N-[2-[1-(2,6-dioxo-3-piperidyl)-3-methyl-2-oxo-benzimidazol-4-yl]ethyl]carbamate], for which the DC50 entry is listed as “C (DC50 greater than or equal to 10 μM)”.

Take `C#Cc1c(F)ccc2cc(O)cc(-c3ncc4c(N5CC6CCC(C5)N6)nc(OC[C@@]56CCCN5[C@H](COC(=O)NCCCCCc5ccc7c(c5)n(C)c(=O)n7C5CCC(=O)NC5=O)CC6)nc4c3F)c12` (stereo partly drawn) [Compound 005, [(3S,8S)-8-[[4-(3,8-diazabicyclo[3.2.1]octan-3-yl)-7-(8-ethynyl-7-fluoro-3-hydroxy-1-napht-hyl)-8-fluoro-pyrido[4,3-d]pyrimidin-2-yl]oxymethyl]-1,2,3,5,6,7-hexahydropyrrolizin-3-yl]methyl N-[5-[1-(2,6-dioxo-3-piperidyl)-3-methyl-2-oxo-benzimidazol-5-yl]pentyl]carbamate]: the DC50 entry is “C (DC50 greater than or equal to 10 μM)”.

In the case of `C#Cc1c(F)ccc2cc(O)cc(-c3ncc4c(N5C[C@H]6CC[C@@H](C5)N6)nc(OC[C@@]56CCCN5[C@H](COC(=O)NCCCCc5ccc7c(c5)n(C)c(=O)n7C5CCC(=O)NC5=O)CC6)nc4c3F)c12` (stereo partly drawn) [Compound 006, ((3S,7aS)-7a-(((4-((1R,5S)-3,8-diazabicyclo[3.2.1]octan-3-yl)-7-(8-ethynyl-7-fluoro-3-hydroxynaphthalen-1-yl)-8-fluoropyrido[4,3-d]pyrimidin-2-yl)oxy)methyl)hexahydro-1H-pyrrolizin-3-yl)methyl (4-(1-(2,6-dioxopiperidin-3-yl)-3-methyl-2-oxo-2,3-dihydro-1H-benzo[d]imidazol-5-yl)butyl)carbamate], the DC50 result is “C (DC50 greater than or equal to 10 μM)”.

For the molecule `C#Cc1c(F)ccc2cc(O)cc(-c3ncc4c(N5CC6CCC(C5)N6)nc(OC[C@@]56CCCN5[C@H](COC(=O)NCCCCCc5cccc7c5n(C)c(=O)n7C5CCC(=O)NC5=O)CC6)nc4c3F)c12` (stereo partly drawn) [Compound 007, [(3S,8S)-8-[[4-(3,8-diazabicyclo[3.2.1]octan-3-yl)-7-(8-ethynyl-7-fluoro-3-hydroxy-1-naphthyl)-8-fluoro-pyrido[4,3-d]pyrimidin-2-yl]oxymethyl]-1,2,3,5,6,7-hexahydropyrrolizin-3-yl]methyl N-[5-[1-(2,6-dioxo-3-piperidyl)-3-methyl-2-oxo-benzimidazol-4-yl]pentyl]carbamate], the DC50 entry was “C (DC50 greater than or equal to 10 μM)”.

For `C#Cc1c(F)ccc2cc(O)cc(-c3ncc4c(N5C[C@H]6CC[C@@H](C5)N6)nc(OC[C@@]56CCCN5[C@H](COC(=O)NCCCCc5cccc7c5n(C)c(=O)n7C5CCC(=O)NC5=O)CC6)nc4c3F)c12` (stereo partly drawn) [Compound 008, ((3S,7aS)-7a-(((4-((1R,5S)-3,8-diazabicyclo[3.2.1]octan-3-yl)-7-(8-ethynyl-7-fluoro-3-hydroxynaphthalen-1-yl)-8-fluoropyrido[4,3-d]pyrimidin-2-yl)oxy)methyl)hexahydro-1H-pyrrolizin-3-yl)methyl (4-(1-(2,6-dioxopiperidin-3-yl)-3-methyl-2-oxo-2,3-dihydro-1H-benzo[d]imidazol-4-yl)butyl)carbamate], the DC50 entry is “B (DC50 greater than or equal to 1 μM and less than 10 μM)”.

Regarding `C#Cc1c(F)ccc2cc(O)cc(-c3ncc4c(N5CC6CCC(C5)N6)nc(OC[C@@]56CCCN5[C@H](COC(=O)NCCCCCCCCCCCc5ccc7c(c5)n(C)c(=O)n7C5CCC(=O)NC5=O)CC6)nc4c3F)c12` (stereo partly drawn) [Compound 009, [(3S,8S)-8-[[4-(3,8-diazabicyclo[3.2.1]octan-3-yl)-7-(8-ethynyl-7-fluoro-3-hydroxy-1-naphthyl)-8-fluoro-pyrido[4,3-d]pyrimidin-2-yl]oxymethyl]-1,2,3,5,6,7-hexahydropyrrolizin-3-yl]methyl N-[11-[1-(2,6-dioxo-3-piperidyl)-3-methyl-2-oxo-benzimidazol-5-yl]undecyl]carbamate], the DC50 entry is “A (DC50 less than 1 μM)”.

For `C#Cc1c(F)ccc2cc(O)cc(-c3ncc4c(N5CC6CCC(C5)N6)nc(OC[C@@]56CCCN5[C@H](COC(=O)NCCCCCCCCCc5ccc7c(c5)n(C)c(=O)n7C5CCC(=O)NC5=O)CC6)nc4c3F)c12` (stereo partly drawn) [Compound 010, [(3S,8S)-8-[[4-(3,8-diazabicyclo[3.2.1]octan-3-yl)-7-(8-ethynyl-7-fluoro-3-hydroxy-1-naphthyl)-8-fluoro-pyrido[4,3-d]pyrimidin-2-yl]oxymethyl]-1,2,3,5,6,7-hexahydropyrrolizin-3-yl]methyl N-[9-[1-(2,6-dioxo-3-piperidyl)-3-methyl-2-oxo-benzimidazol-5-yl]nonyl]carbamate], the DC50 entry is on record as “A (DC50 less than 1 μM)”.
